# Experimental data taken from patent US7351874B2, “Mouse model for fatty acid amide-related neurobehaviors” (The Scripps Research Institute, priority 2001, dated 2008).
# “Also recorded” adds a separate entry of the source.
# Assays:
# FAAH−/− and FAAH+/+ mice [1] = test: Locomotor activity (hypomotility), grid crossings 15 to 20 min post-injection; type: in vivo, mouse
# Protocol: (§1) All drugs were administered intraperitoneal (ip) in a mixture of 1 part ethanol: 1 part EMULPHOR alcohol (GAF Corp.; New York N.Y.): 18 parts saline (10 μl/g body weight), except naloxone was administered ip in saline.
# (§2) Locomotor activity was assessed by placing each mouse in a clear plexiglass cage (18×10×8.5 inches; l.w.h) that was marked in 7 cm square grids on the floor of the cage. The number of grids that were traversed by the hind paws was counted from 15 to 20 min post-injection. Nociception was assessed using the tail immersion assay, wherein each mouse was hand-held with approximately 1 cm of the tip of the tail immersed into a water bath maintained at 56.0° C. and the latency for the animal to withdraw its tail was scored. The cutoff was 15 sec, and the data were expressed as the percent maximum possible effect (% MPE), where % MPE=100×{(post-injection latency−pre-injection latency)/(15−pre-injection latency)}. Baseline thermal nociception was also analyzed using the hot plate test, wherein the latency to jump or lick/shake a hind paw was scored.
# FAAH−/− and FAAH+/+ mice [2] = test: Tail immersion assay (antinociception); type: in vivo, mouse
# Protocol: as §1, §2
# FAAH−/− and FAAH+/+ mice [3] = test: Catalepsy bar test; type: in vivo, mouse
# Protocol: as §1
# (§3) Catalepsy was evaluated using the bar test, in which the front paws of each subject were placed on a rod (0.75 cm diameter) that was elevated 4.5 cm above the surface. Mice that remained motionless with their paws on the bar for 10 sec (with the exception of respiratory movements) were scored as cataleptic. Rectal temperature was determined by inserting a thermocouple probe 1.2 cm into the rectum; the temperature was obtained using a telethermometer. The pre-injection rectal temperatures for FAAH^+/+ (35.6±0.2° C., n=28) and FAAH^−/− mice (35.5±0.1° C., n=30) mice were equivalent. Catalepsy and rectal temperature were assessed at 60 min post-injection unless otherwise indicated.
# FAAH−/− and FAAH+/+ mice [4] = test: Rectal temperature (hypothermia); type: in vivo, mouse
# Protocol: as §1, §3
# [5] = tested on: FAAH−/−, FAAH+/− and FAAH+/+ mice; test: Hot plate test, response latency before and after treatment; type: in vivo, mouse
# Protocol: as §2
# To test whether enhanced levels of endogenous anandamide were responsible for the analgesia observed in FAAH^−/− mice, the pain responses of these animals and FAAH^+/+ mice were tested prior to and after treatment with vehicle or with SR141716A.
# FAAH−/− and FAAH+/+ mice [6] = test: Neurobehavioral assays taken together (hypomotility, analgesia, catalepsy, hypothermia); type: in vivo, mouse
# Protocol: as §1, §2
# as §3, with “The pre-injection rectal temperatures for FAAH^+/+ (35.6±0.2° C., n=28) and FAAH^−/− mice (35.5±0.1° C., n=30) mice were equivalent.” left out
# FAAH−/− mice = test: Overt cage behavior after anandamide; type: in vivo, mouse
# From the text: If startled by sound or touch, the knockout mice reacted with brief fits of spastic movement, then quickly reentered a flattened, immobile state. Anandamide-treated FAAH^−/− mice remained immobile for 2 to 4 hr, depending on dose, after which they gradually reinitiated normal cage activities, including movement, rearing, and grooming.
# [7] = tested on: FAAH(−/−), FAAH-TG(+) and FAAH(−/−), FAAH-TG(−) mice; test: Pharmacological effects of anandamide in mice with FAAH expression restricted to the nervous system; type: in vivo, mouse; settings: 50 mg/kg i.p.
# Protocol: Animals were tested at 20 minutes (A) and 60 minute (B and C) following treatment with anandamide. HT−=FAAH(+/−), FAAH-TG(−); KO+=FAAH(−/−), FAAH-TG(+); KO−=FAAH(−/−), FAAH-TG(−).
# Exogenously applied and endogenously produced fatty acid amides induce a variety of behavioral effects in mammals, which may reflect either central or peripheral sites of action. In wild type mammals, FAAH is not only expressed in the central and peripheral nervous system, but also in a variety of non-nervous system peripheral tissues, including liver, kidney, and testis. […] To address this issue, the mouse FAAH cDNA was placed under the control of the neural specific enolase (NSE) promoter (Forss-Petter et al. (1990) Neuron 5, 187-197) and this construct was used to generate transgenic mice (mixed background of C57Bl/6 and Balb/c) by pronuclear injection methods following standard literature procedures (Gordon, J. W. (1993) Methods Enzymol. 225, 747-771). These animals were screened by Southern blotting for genomic incorporation of the FAAH gene and multiple FAAH-positive transgenic [FAAH-TG(+)] lines were identified. One of these FAAH-TG(+) lines was then crossed to mice heterozygotic for FAAH deletion [FAAH(+/−) mice]. To create representative mouse genotypes for biochemical and behavioral analysis, the following breeding pairs were set up: FAAH(+/−),FAAH-TG(+)×FAAH(−/−),FAAH-TG(−). […]
# [8] = cited from earlier work
# [9] = biological target: T1, fatty acid amide hydrolase (FAAH) (Mus musculus, UniProt O08914); test: FAAH activity assay, conversion of 14C-labeled substrates by thin layer chromatography; type: biochemical; settings: pH 7.2
# T1 construct: Brain and liver were isolated from homozygous wild type (FAAH^+/+), heterozygous (FAAH^+/−) and homozygous knockout (FAAH^−/−) mice; from tissue; host or cells: mouse brain and liver extracts (129SvJ-C57BL/6 intercross offspring)
# T1 sequence (O08914 1-579): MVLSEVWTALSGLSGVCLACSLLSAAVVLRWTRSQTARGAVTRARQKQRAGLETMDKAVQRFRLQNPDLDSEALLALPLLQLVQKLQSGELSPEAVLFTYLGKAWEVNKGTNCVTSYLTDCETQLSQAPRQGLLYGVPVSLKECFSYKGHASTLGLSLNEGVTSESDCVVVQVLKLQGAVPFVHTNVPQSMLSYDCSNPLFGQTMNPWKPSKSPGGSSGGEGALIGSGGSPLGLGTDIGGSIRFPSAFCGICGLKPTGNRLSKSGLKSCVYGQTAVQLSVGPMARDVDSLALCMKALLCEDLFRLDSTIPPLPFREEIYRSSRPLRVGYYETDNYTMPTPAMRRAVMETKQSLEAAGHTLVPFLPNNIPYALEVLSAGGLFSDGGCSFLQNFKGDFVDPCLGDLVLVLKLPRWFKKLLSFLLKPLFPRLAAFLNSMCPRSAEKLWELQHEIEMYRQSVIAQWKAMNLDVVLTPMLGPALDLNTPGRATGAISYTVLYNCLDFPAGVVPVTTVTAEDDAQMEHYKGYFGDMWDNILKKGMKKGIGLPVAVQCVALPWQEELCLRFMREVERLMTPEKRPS
# Protocol: The mice also were examined for FAAH enzymatic activity. FAAH activity assays for oleamide and anandamide were measured by following the conversion of ^14C-labeled substrates using a thin layer chromatography assay essentially as described by Patricelli et al. (Biochemistry 38:9804-9812, 1999), except that enzyme assays were conducted at pH 7.2. […] Brain extracts from FAAH^−/− mice hydrolyzed anandamide and oleamide 50 to 100 times more slowly than brain extracts from the homozygous wild type mice.
# [10] = FAAH−/− mice, 10 mg/kg, 10 min prior to anandamide 50 mg/kg
# [11] = FAAH−/− mice, 50 mg/kg ip, 60 min post-injection
compound,measurement,setting,value
Cc1c(C(=O)NN2CCCCC2)nn(-c2ccc(Cl)cc2Cl)c1-c1ccc(Cl)cc1 [SR141716A],effect of pretreatment on anandamide-induced hypomotility,FAAH−/− and FAAH+/+ mice [1]; [10],completely blocked
same,effect of pretreatment on anandamide-induced antinociception,FAAH−/− and FAAH+/+ mice [2]; [10],completely blocked
same,effect of pretreatment on anandamide-induced catalepsy,FAAH−/− and FAAH+/+ mice [3]; [10],completely blocked
same,effect of pretreatment on anandamide-induced hypothermia,FAAH−/− and FAAH+/+ mice [4]; [10],completely blocked
same,change of hot plate response latency after treatment,"[5]; FAAH+/+ (b22 also FAAH+/−) mice, listed as SR141617A",No significant change from baseline; also recorded: modest increases in their hot plate response latencies that failed to reach significance
same,change of hot plate pain response latency after treatment,[5]; FAAH−/− mice,dramatic reduction
same,effect of pretreatment on all behavioral effects of anandamide,"FAAH−/− and FAAH+/+ mice [6]; FAAH−/− mice, 10 mg/kg ip, 10 min prior to anandamide 50 mg/kg",completely blocked
"CCCCCc1cc(O)c2c(c1)OC(C)(C)[C@@H]1CCC(C)=C[C@@H]21 [THC, (−)-Δ^9-tetrahydrocannabinol]","dose response profiles in FAAH−/− versus FAAH+/+ mice, all behavioral assays tested","FAAH−/− and FAAH+/+ mice [6]; FAAH−/− and FAAH+/+ mice (Table 2, not given)",nearly identical
"CCCCC/C=C\C/C=C\C/C=C\C/C=C\CCCC(=O)NCCO [anandamide, N-arachidonoyl-ethanolamine]",reduction in spontaneous activity,"FAAH−/− and FAAH+/+ mice [1]; FAAH−/− mice, 50 mg/kg ip",84±8%
same,ED50,"FAAH−/− and FAAH+/+ mice [1]; Mus musculus, ip, read-out: ED50, hypomotility (locomotor activity)",< 6.25 mg/kg
same,"analgesia in the tail immersion test, maximum possible effect (MPE)","FAAH−/− and FAAH+/+ mice [2]; FAAH−/− mice, 50 mg/kg ip",89±11%
same,ED50,"FAAH−/− and FAAH+/+ mice [2]; Mus musculus, ip, read-out: ED50, antinociception (tail-immersion)",13 mg/kg
same,time by which catalepsy gradually dissipated,"FAAH−/− and FAAH+/+ mice [3]; FAAH−/− mice, 50 mg/kg",≤ 4 h
same,time post-treatment of most extreme catalepsy,"FAAH−/− and FAAH+/+ mice [3]; FAAH−/− mice, 50 mg/kg",1 h
same,"cataleptic behavior in the bar test, share of the test group",FAAH−/− and FAAH+/+ mice [3]; [11],88%
same,ED50,"FAAH−/− and FAAH+/+ mice [3]; Mus musculus, CL-11, ip, read-out: ED50, catalepsy",20 mg/kg
same,time at which rectal temperature began to return to wild type values,"FAAH−/− and FAAH+/+ mice [4]; FAAH−/− mice, 50 mg/kg",≤ 4 h
same,reduction in rectal temperature,FAAH−/− and FAAH+/+ mice [4]; [11],7.9±0.3 °C
same,ED50,"FAAH−/− and FAAH+/+ mice [4]; Mus musculus, ip, read-out: ED50, hypothermia (rectal temperature)",11 mg/kg
same,time at which the behavioral impact was readily detected,FAAH−/− mice,within five min of treatment
same,time the mice remained immobile,FAAH−/− mice; depending on dose,2 to 4 h
same,behavioral effects in FAAH+/+ mice,"FAAH−/− and FAAH+/+ mice [6]; FAAH+/+ mice, 6.25 to 50 mg/kg ip",failed to produce any significant effects
same,state of treated FAAH−/− mice 24 hr after treatment,"FAAH−/− and FAAH+/+ mice [6]; FAAH−/− mice, 24 hr after treatment",indistinguishable from FAAH^+/+ mice
same,behavioral effects in mice expressing FAAH only in the nervous system,"[7]; FAAH-TG(+) (KO+) mice, 50 mg/kg",sufficient to block the pharmacological effects; also recorded: dramatically reduced
same,behavioral effects in mice lacking FAAH,[7]; FAAH-TG(−) (KO−) mice,displayed significant behavioral effects
same,half-life in vivo,[8],on the order of minutes
C=CCN1CC[C@]23c4c5ccc(O)c4O[C@H]2C(=O)CC[C@@]3(O)[C@H]1C5 [naloxone],effect of pretreatment on activity due to anandamide,"FAAH−/− and FAAH+/+ mice [6]; FAAH−/− mice, 2 mg/kg ip in saline",failed to reduce any activity
CCCCCCCC/C=C\CCCCCCCC(N)=O [oleamide],"hydrolysis by FAAH−/− brain extracts, times more slowly than homozygous wild type brain extracts",[9],50 to 100 times
